According to article PMC7005905, “Identification and characterization of a bacterial core methionine synthase” (Scientific Reports, 2020):

Experiments:
tr-MetEEco = biological target: T1, tr-MetEEco (Escherichia coli, UniProt P25665); test: HPLC and MS of products; assay type: biochemical; conditions: 2 mM D,L-homocysteine, 150 µM 5-methyl-THF-Glu3, pH 7.2, 100 µM MgSO4, 100 µM ZnSO4, 10 mM DTT, 37 °C
T1 construct: gene metE; tandem-repeat MetE, full length, 753 residues, 85 kDa, recombinant in E. coli DH10B (pBAD30_MetE), anion exchange; source strain of the gene not in main text (K-12 likely)
T1 sequence (P25665 2-753): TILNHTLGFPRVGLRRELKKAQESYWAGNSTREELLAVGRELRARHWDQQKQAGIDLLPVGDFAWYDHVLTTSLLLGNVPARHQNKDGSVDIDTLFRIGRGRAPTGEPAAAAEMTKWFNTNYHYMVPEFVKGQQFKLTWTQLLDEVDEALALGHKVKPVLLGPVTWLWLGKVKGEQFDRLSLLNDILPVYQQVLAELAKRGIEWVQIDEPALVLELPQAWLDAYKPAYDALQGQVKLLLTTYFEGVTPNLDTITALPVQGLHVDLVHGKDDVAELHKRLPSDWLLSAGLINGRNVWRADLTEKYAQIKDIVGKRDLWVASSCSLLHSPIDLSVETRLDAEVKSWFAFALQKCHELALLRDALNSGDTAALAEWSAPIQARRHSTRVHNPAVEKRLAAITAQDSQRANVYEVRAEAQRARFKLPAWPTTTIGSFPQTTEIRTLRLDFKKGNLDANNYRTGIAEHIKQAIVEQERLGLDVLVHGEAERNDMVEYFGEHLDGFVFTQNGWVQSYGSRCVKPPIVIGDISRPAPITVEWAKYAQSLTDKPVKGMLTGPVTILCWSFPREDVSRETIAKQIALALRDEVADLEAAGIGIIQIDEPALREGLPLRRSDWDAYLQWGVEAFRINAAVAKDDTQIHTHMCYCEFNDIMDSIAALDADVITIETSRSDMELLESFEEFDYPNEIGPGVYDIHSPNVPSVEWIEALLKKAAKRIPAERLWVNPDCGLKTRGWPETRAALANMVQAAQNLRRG

core-MetECBDB = biological target: T2, core-MetECBDB (Dehalococcoides mccartyi, UniProt A0A916P3S8); conditions: 2 mM D,L-homocysteine, 50 mM Tris/HCl pH 6.5, 150 mM NaCl, 10% glycerol, anoxic, 0.1 µM enzyme; Hill fit
T2 construct: gene cbdbA481

purified protein = substrate: NC(CCS)C(=O)O; test: purified protein; conditions: 0.5 mM methylcob(III)alamin, 50 mM Tris/HCl pH 6.5, 150 mM NaCl, 10% glycerol, anoxic, 0.1 µM enzyme, racemate, enzyme taken as L-specific, Hill fit

NC(CCS)C(=O)O (racemic) [D,L-homocysteine]
HPLC and MS of products (tr-MetEEco): in the presence of tr-MetEEco, methionine was formed

C.C/C1=C2/N[C@H]([C@H](CC(N)=O)[C@@]2(C)CCC(=O)NC[C@@H](C)OP(=O)(O)O[C@H]2[C@@H](O)[C@@H](n3cnc4cc(C)c(C)cc43)O[C@@H]2CO)[C@]2(C)N=C(/C(C)=C3N=C(/C=C4N=C1[C@@H](CCC(N)=O)C\4(C)C)[C@@H](CCC(N)=O)[C@]\3(C)CC(N)=O)[C@@H](CCC(N)=O)[C@]2(C)CC(N)=O.[Co] [MeCbl(III), methylcob(III)alamin]
Km (core-MetECBDB): 236 ± 3 µM

B1: core-MetECBDB (Dehalococcoides mccartyi CBDB1) (protein)
chain: MTKTDFYFLPTMIGSMPHTDPKAAVDIITHYLRDIPVWPQLPRRSYLEGMSAQFSQGLPGVNINQDKMWIEPNSGFEGELESLYQAYLDNDFNKFPIGVEYAAGLYELASRSNLSPKLVKGHITGPLTYCMSIKDPSGKDILYDEVLSDAATKLLKLKASWQEHFLKKICRNTIIFVDEPAMSAYGSAYLPLSREQVTGMFEEVFSGISGLKGVHCCGNTDWSILMDTSVDIINFDTYSYADSLAIYTDALQAFIKRGGAVAWGIVPTDEKALKEETAASLKDRLEAAMSHFDSKGLPFAELARHSLITPACGLGLKSLDAAERAPELLAELSALLRRKHGTV
Km (purified protein): 98 ± 0 µM | kcat (purified protein): ~60 s⁻¹
